≈ marks a conversion by molar mass, not a printed value.
How the values were obtained:
Format in all cases: functional
Bacillus anthracis = experiment: Antibacterial activity Bacillus anthracis Sterne 34F2 assessed as inhibition of bacterial growth by CLSI based microbroth dilution assay
Enterococcus faecalis = experiment: Antibacterial activity Enterococcus faecalis ATCC 33186 assessed as inhibition of bacterial growth by CLSI based microbroth dilution assay
Staphylococcus aureus [1] = experiment: Antibacterial activity methicillin-resistant Staphylococcus aureus USA300 assessed as inhibition of bacterial growth by CLSI based microbroth dilution assay
Staphylococcus aureus [2] = experiment: Antibacterial activity methicillin-resistant Staphylococcus aureus ST3151 assessed as inhibition of bacterial growth by microdilution broth method
Staphylococcus aureus [3] = experiment: Antibacterial activity methicillin-resistant Staphylococcus aureus P4627 assessed as inhibition of bacterial growth by microdilution broth method
Staphylococcus aureus [4] = experiment: Antibacterial activity methicillin-resistant Staphylococcus aureus B10760 assessed as inhibition of bacterial growth by microdilution broth method
Staphylococcus aureus [5] = experiment: Antibacterial activity methicillin-resistant Staphylococcus aureus P4620 assessed as inhibition of bacterial growth by microdilution broth method
Staphylococcus aureus [6] = experiment: Antibacterial activity methicillin-resistant Staphylococcus aureus P4423 assessed as inhibition of bacterial growth by microdilution broth method
Staphylococcus aureus [7] = experiment: Antibacterial activity Staphylococcus aureus ATCC 588 assessed as inhibition of bacterial growth incubated for 24 hrs by broth microdilution method
Listeria monocytogenes = experiment: Antibacterial activity Listeria monocytogenes ATCC 7644 assessed as inhibition of bacterial growth incubated for 24 hrs by broth microdilution method
Staphylococcus aureus [8] = experiment: Antibacterial activity Staphylococcus aureus ATCC 6538 assessed as inhibition of bacterial growth incubated for 24 hrs by broth microdilution method

`Cc1cc(C(=O)CC(Sc2ccc(Cl)cc2)c2ccc(Cl)cc2)ccc1O` (stereo unspecified) was tested, and the MIC (Bacillus anthracis) was 3.12 µg/mL (≈ 7.49 µM), the MIC (Enterococcus faecalis) was 1.56 µg/mL (≈ 3.74 µM) and the MIC (Staphylococcus aureus [1]) was 0.78 µg/mL (≈ 1.87 µM).
For `O=C(/C=C/c1ccc(O)cc1)c1ccc2c(c1O)CN(Cc1cc(C(F)(F)F)ccc1Cl)CO2`, the MIC (Staphylococcus aureus [2]) was 25 µg/mL (≈ 51 µM), the MIC (Staphylococcus aureus [3]) was 25 µg/mL (≈ 51 µM) and the MIC (Staphylococcus aureus [4]) was 25 µg/mL (≈ 51 µM). For the same compound, the MIC (Staphylococcus aureus [5]) was 25 µg/mL (≈ 51 µM) and the MIC (Staphylococcus aureus [6]) was 25 µg/mL (≈ 51 µM).
In the case of `O=C(CCc1ccc(O)cc1)c1c(O)cc(O)cc1O` [PHLORETIN], the MIC (Staphylococcus aureus [7]) is reported as 7.81 µg/mL (≈ 28.5 µM), the MIC (Listeria monocytogenes) is reported as 62.5 µg/mL (≈ 228 µM) and the MIC (Staphylococcus aureus [8]) is reported as 7.81 µg/mL (≈ 28.5 µM).

— ChEMBL document CHEMBL5233215, “Recent developments of chalcones as potential antibacterial agents in medicinal chemistry” (Eur J Med Chem, 2020)
